Data as given in patent US12528777B2, “Quinazolinones derivatives for treatment of non-alcoholic fatty liver disease, preparation and use thereof” (Council of Scientific and Industrial Research, priority 2020, dated 2026).
“Also recorded” adds a separate entry of the source.

What was measured:
[1] = Plasma stability assay; type: in vitro ADME, human; settings: for Mean % remaining at 2 hrs in human Plasma: 1 μM, 37° C., 120 min, LC-MS/MS; for Plasma stability: human plasma, after 2 hours, with respect to Propantheline
Protocol: 1 mM Stock of test compound was prepared from 10 mM initial stock solution of compounds by diluting 10 μL of 10 mM stock with 90 μL of DMSO. Then 10 μL of 1 mM stock was diluted with 90 µL of DMSO to give 100 μM concentration. The frozen plasma was thawed at room temperature and centrifuged at 1400 rpm at 4° C., for 15 minutes. Approximately […] of the clear supernatant fraction was transferred to a separate tube and was used for the assay. Final working stock of 1 μM was prepared by diluting 3 μL of 100 μM with 297 μL of plasma. Plasma containing the test compound was incubated for 120 min at 37° C. in shaker with 500 rpm. 50 μL of aliquot of sample at 0, 15, 30, 60 and 120 minutes were precipitated with 150 μL of acetonitrile containing internal standard and centrifuged at 4000 rpm at 4° C. for 20 minutes. 120 μL of supernatant was diluted with 120 μL of water and analyzed by LC-MS/MS.

[2] = system: ATGL; assay: Western blot of ATGL level in HepG2 cells; type: cell-based; parameters: key to Increase in ATGL level: + = slight or in insignificant; ++ = Moderate; +++ and ++++ = active; +++ and ++++ = active; +++++ = very active; settings: for Increase in ATGL level: HepG2 cells, score; for Increase in ATGL level / ATGL level in HepG2 cells: western blot; for ATGL level in HepG2 cells: 24 hours, 10 μM screening or 50 nM-5 μM dose dependent; for EC50: fold increase of ATGL by densitometry, as % of 1.6 fold maximum with siCOP1, doses 10-5000 nM, read-out: EC50 (in-vitro)
In short: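 HepG2 cells were treated with compound 24 h (10 μM screen; 50 nM–5 μM dose series) and lysed. 30 μg protein was western blotted for ATGL, with actin as loading reference. ATGL increase was expressed as percent of the 1.6-fold siCOP1 maximum and plotted against log concentration for EC50.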

Structure (SMILES): COCCn1cnc2ccc(NC(=O)Nc3cccc(C(C)=O)c3)cc2c1=O [Compound 9, 1-(3-acetylphenyl)-3-(3-(2-methoxyethyl)-4-oxo-3,4-dihydroquinazolin-6-yl)urea]
- Mean % remaining at 2 hrs in human Plasma [1]: 16.9%
- Plasma stability [1]: lower plasma stability
- Increase in ATGL level [2]: +++++
- ATGL level in HepG2 cells [2]: increased ATGL level

Structure (SMILES): COCCn1c(C)nc2ccc(NC(=O)Nc3cccc(C(C)=O)c3)cc2c1=O [Compound 107, 1-(3-acetylphenyl)-3-(3-(2-methoxyethyl)-2-methyl-4-oxo-3,4-dihydroquinazolin-6-yl)urea]
- Increase in ATGL level [2]: ++++

Structure (SMILES): CC(=O)c1cccc(NC(=O)Nc2ccc3ncn(CCCN4CCOCC4)c(=O)c3c2)c1 [Compound 139, 1-(3-acetylphenyl)-3-(3-(3-morpholinopropyl)-4-oxo-3,4-dihydroquinazolin-6-yl)urea]
- Mean % remaining at 2 hrs in human Plasma [1]: 55.50%
- Plasma stability [1]: good plasma stability
- Increase in ATGL level [2]: +++
- EC50 [2]: 1.19 nM
- ATGL level in HepG2 cells [2]: increased ATGL level; also recorded: some sort of increase in ATGL level

Structure (SMILES): COCC(C)n1cnc2ccc(NC(=O)Nc3cccc(C(C)=O)c3)cc2c1=O (centres unmarked) [Compound 179, 1-(3-acetylphenyl)-3-(3-(1-methoxypropan-2-yl)-4-oxo-3,4-dihydroquinazolin-6-yl)urea]
- Mean % remaining at 2 hrs in human Plasma [1]: 20.6%
- Plasma stability [1]: lower plasma stability
- Increase in ATGL level [2]: +++++

Structure (SMILES): COCCn1c(-c2cccnc2)nc2ccc(NC(=O)Nc3cccc(C(C)=O)c3)cc2c1=O [Compound 215, 1-(3-acetylphenyl)-3-(3-(2-methoxyethyl)-4-oxo-2-(pyridin-3-yl)-3,4-dihydroquinazolin-6-yl)urea]
- Mean % remaining at 2 hrs in human Plasma [1]: 80.70%
- Plasma stability [1]: good plasma stability
- EC50 [2]: 30.2 nM
- ATGL level in HepG2 cells [2]: increased ATGL level

Structure (SMILES): COCCn1c(-c2ccncc2)nc2ccc(NC(=O)Nc3cccc(C(C)=O)c3)cc2c1=O [Compound 219, 1-(3-acetylphenyl)-3-(3-(2-methoxyethyl)-4-oxo-2-(pyridin-4-yl)-3,4-dihydroquinazolin-6-yl)urea]
- Mean % remaining at 2 hrs in human Plasma [1]: 73.9%
- Plasma stability [1]: good plasma stability
- EC50 [2]: 29.5 nM
- ATGL level in HepG2 cells [2]: increased ATGL level

Structure (SMILES): COCCn1c(CN2CCCCC2)nc2ccc(NC(=O)Nc3cccc(C(C)=O)c3)cc2c1=O [Compound 238, 1-(3-acetylphenyl)-3-(3-(2-methoxyethyl)-4-oxo-2-(piperidin-1-ylmethyl)-3,4-dihydroquinazolin-6-yl)urea]
- Mean % remaining at 2 hrs in human Plasma [1]: 98.1%
- Plasma stability [1]: good plasma stability
- Increase in ATGL level [2]: +++++
- EC50 [2]: 1.02 nM
- ATGL level in HepG2 cells [2]: increased ATGL level; also recorded: most potent in increasing ATGL and COP1 levels; also recorded: increase in ATGL and COP1 levels
